Like-named read-outs stand apart in the source and are kept apart here.

For data set [1] the following is noted: literature; cited from earlier work.
For data set [2] the following is noted: literature; cited from earlier work. This is another data set of the same source.
The conditions of data set [3]: literature; cited from earlier work. This is another data set of the same source.
The conditions of data set [4]: standard curve, well-characterized chelators; cited from earlier work.
The conditions of data set [5]: cited from earlier work; for r1: based on references.
The subject of data set [6] is CD-1 mice. Put plainly: Mouse MR imaging. It is filed as in vivo. The settings on record: 3T or 9.4T. The method, then:
(§1) Mouse MR Imaging. Care of experimental animals was in accordance with institutional guidelines. CD-1 mice (25-30 g, four mice were imaged) were anesthetized with an isoflurane gas mixture. The anesthetized animal was positioned and stabilized with soft-supporting material (e.g., foam) in the scanner in the coil cradle and was kept warm during the MRI scan. The mice were scanned prior to the administration of any contrast agent (pre-contrast). Approximately 50 μl of Gd-CA1.CD2 (~1.2 mM) or Gd-DTPA (~300 mM) were injected into the animal via the tail vein. MR images were collected at different times (indicated). For T1 weighted imaging at 3T, spin echo sequence with TE/TR=15 ms/500 ms was employed. Rectangular Field of View (FOV) at 100/40 mm, an acquisition matrix of 196^2 and 1.1 mm slice thickness without gap were used. Images were collected from both transverse and coronal sections. The in-plane resolution of images was less than 0.5 mm after they were reconstructed to the matrix of 196^2. For T2 weighted imaging at 9.4T, MR images were recorded using a multi-echo Carr-Purcell-Meiboom-Gill (CPMG) sequence. The data were collected and processed by Dicomworks software. The MR signal intensity in several organs was ascertained by the average intensity in ROIs or points within the organs. Signal intensity for each organ was normalized to that of the leg muscle.
as §1, with “Care” for “Mouse MR Imaging. Care”, “(e.g.” for “(e.g.,”

Data set [7] is described as follows: In vitro r1 and r2 proton relaxivity. It is filed as physicochemical. The method, then:
Determination of r1 and r2 Relaxivity Values, Relaxation times, T1 and T2, were determined at 1.5, 3, 9.4 Tesla using a Siemens whole-body MR system (1.5, 3T) or a Bruker MRI scanner (9.4T). T1 was determined using inversion recovery and T2 using a multi-echo Carr-Purcell-Meiboom-Gill (CPMG) sequence. The contrast agent samples (200 μl) with different concentrations were placed in eppendorf tubes. The tubes were placed on a tube rack, which was placed in MRI scanners for the measurement of relaxation times r1 and r2 were calculated based on r1(mM^−1 S^−1)=(1/T1s−1/T1c)/C and r2(mM^−1 S^−1)=(1/T2s−1/T2c)/C, where T1s and T2s are relaxation times with contrast agent and T1c and T2c are relaxation times without contrast agent. C is the concentration of contrast agent in mM (the measured Gd^3+ concentrations by ICP-MS). […]

Data set [8] in a line: In vitro r1 and r2 proton relaxivity. The settings on record: 3.0 T; 50 μM designed agents, 100 μM Gd-DTPA. The class given is physicochemical.
The conditions of data set [9]: used for the Gd^3+ buffer system; read-out: Gd^3+-binding affinity; cited from earlier work.
The nature of data set [10]: Water coordination number by terbium life time luminescence. It is filed as physicochemical. On the procedure: Measurement of Water Coordination Number by Terbium Life Time Luminescence. The number of water ligands coordinated to Gd^3+-CA1.CD2 complex was determined by measuring Tb^3+ luminescence decay in H2O or D2O. Tb^3+ excited state lifetime was measured using a fluorescence spectrophotometer (Photon Technology International, Inc.) with a 10 mm path length quartz cell at 22° ° C. Following excitation at 265 nm with a XenoFlash (Photon Technology International, Inc.), Tb^3+ emission was monitored at 545 nm in a time series experiment in both H2O and D2O systems. Luminescence decay lifetime was obtained by fitting the acquired data with a mono-exponential decay function. H2O in CA1.CD2 solution was replaced with D2O by lypholization and re-dissolved in D2O at least three times. A standard curve correlating the Δkobs with water number under our experimental conditions was established by using well-characterized chelators, such as EDTA (q=3), DTPA (q=1), NTA (q=5), and Aquo Tb^3+ (q=9) solution with R^2=0.997.^26,27 Water number coordinated to Tb^3+-CA1.CD2 complex was then obtained by fitting the acquired Δkobs value to the standard curve.
The numbers of water ligands coordinated to Gd^3+-CA1.CD2 and variants complex were determined by measuring Tb^3+ luminescence decay in H2O or D2O (Yang et al., 2008). Tb^3+ excited state lifetime was measured using a fluorescence spectrophotometer (Photon Technology International, Inc.) with a 10 mm path length quartz cell at 22° C. Following excitation at 265 nm with a XenoFlash (Photon Technology International, Inc.), Tb^3+ emission was monitored at 545 nm in a time series experiment in both H2O and D2O systems. Luminescence decay lifetime was obtained by fitting the acquired data with a mono-exponential decay function. H2O in CA1.CD2 solution was replaced with D2O by lypholization and re-dissolved in D2O at least three times. A standard curve correlating the Δkobs with water number under our experimental conditions was established by using well-characterized chelators, such as EDTA (q=3). DTPA (q=1), NTA (q=5), and Aquo Tb^3+ (q=9) solation with R^2=0.997.^26, 27 Water number coordinated to Tb^+-CA1.CD2 complex was then obtained by fitting the acquired Δkobs value to the standard curve.

A short description of data set [11]: Serum stability in human serum at 37° C., SDS-PAGE. It is filed as in vitro ADME. The settings on record: 24 hours at 37° C., SDS Page. The method, then: Serum stability. […] The degradation of the protein (disappearance of 12 kDa protein band) was analyzed by SDS-PAGE and visualized by coomassie blue staining. In parallel, the degradation of the protein was also analyzed by immunoblot using antibodies OX54 or PabCD2. The identities of the 12 kDa bands as CA1.CD2 were always verified by immunobloting using antibody PabCD2.
[…] The degradation of the protein (disappearance of 12 kDa protein band) was analyzed by SDS-PAGE and visualized by coomassie blue staining for protein and idiol staining for PEG moiety. In parallel, the degradation of the protein was also analyzed by immunoblot using antibodies OX54 or PabCD2. The identities of CA1.CD2 and pegylated variants were verified by immunoblotting using antibody PabCD2.and idiol staining.

The subject of data set [12] is DU-145. Kind of data set: Uptake and internalization by confocal fluorescent microscope. It is filed as cell-based. On the procedure: (§2) DU-145, PC-3 and H441 cells (8×10^4) were seeded in 4-well chambers (BD) at 37° C. overnight. In the second day, fresh medium was changed. Contrast agents were incubated with cells at different time point at 37° C. Subsequently, the cells were washed with PBS for three times and fixed with 3% formaldehyde for 15 minutes. After cells were rinsed in PBS for three times, 0.2% Triton X-100 was added to permeablize cells for 10 minutes. The cells were washed and four drops of Image-IT Fx signal enhancer (Invitrogen, CA) was applied in each sample to block unspecific binding. After three time washes, CD2 antibody was used as primary antibody. Goat anti-mouse IgG conjugated with Alexa Fluor 488 was used as detection antibody (Invitrogen, CA). The fluorescence image was acquired using 488 nm and UV lasers.

The subject of data set [13] is PC-3. The data set is described as above. The class given is cell-based. On the procedure: as §2

Regarding `O=C(O)CN(CCN(CC(=O)O)CC(=O)O)CCN(CC(=O)O)CC(=O)O` [DTPA], in data set [1], the “Log (KGd/KCa)” value is reported as 11.70 and the “Metal binding constant (Log Ka) Ca^2+” value is on record as 10.75. Further, in data set [2], the “Log (KGd/KMg)” value is listed as 4.25. Also, the “Log (KGd/KZn)” value in data set [3] is reported as 4.17. Further, in data set [4], the “water number q of standard chelators” value is 1. The relaxivity in data set [5] (clinically used DTPA, field not stated) was 5 mM⁻¹ s⁻¹.

As for `O=C(O)CN(CCN(CC(=O)O)CC(=O)O)CC(=O)O` [EDTA], the “water number q of standard chelators” value in data set [4] is reported as 3.

Turning to `O=C([O-])CN(CCN(CC(=O)[O-])CC(=O)O)CCN(CC(=O)[O-])CC(=O)O.[Gd+3]` [Gd-DTPA, reference compound], in [6], the “contrast enhancement at the same concentration as Gd-CA1.CD2” value was “failed to exhibit contrast enhancements”. Further, the r1 in [7] (B0 1.5 T) stood at 5.4 mM⁻¹ s⁻¹; in data set [7] (B0 3 T), 4.2 mM⁻¹ s⁻¹. Besides, in data set [8], the “contrast enhancement in T1 weighted imaging of samples” value is on record as “did not lead to significant enhancement”.

Take `O=C(O)CN(CC(=O)O)CC(=O)O` [NTA, nitrilotriacetic acid]: the “water number q of standard chelators” value in [4] was 5. The Kd in data set [9] is 2.6 pM.

On to Albumin, for which the r1 in data set [5] (B0 0.25 T) is 11.5 mM⁻¹ s⁻¹.

Turning to Gadomer-17, the r1 in data set [5] (B0 1.5 T) is 13 mM⁻¹ s⁻¹.

On to troponin C [reference compound], for which the “hydration number (water number in the coordination shell)” value in data set [10] is on record as 1.8.

B1: CA1.CD2-P40: CA1.CD2 PEGylated with PEG40 (conjugate)
chain: RDSGTVWGALGHGINLNIPNFQMTDDIDEVRWERGSTLVAEFKRKMKPFLKSGAFEILANGDLKIKNLTRDDSGTYNVTVYSTNGTRILNKALDLRILE
With B1, the “stability in human serum” value in [11] was “remains intact”.

B2: CA1.CD2-521-Bom: Bom/GRP sequence grafted into CA1.CD2 (protein)
chain: RDSGTVWGALGHGIELNIPNFQMTDDIDEVRWERGSTLVAEFKRKMKPFLKSGGSGGGNQWAVGHLMGGSGGGAFEIDANGDLDIKNLTRDDSGTYNVTVYSTNGTRILNKALDLRILE
For the molecule B2, in data set [12], the “uptake in GRPR positive DU-145 cells” value was “uptake and internalization”. In addition, the “uptake in GRPR positive PC-3 cells” value in [13] is “uptake and internalization”.

These data come from patent publication US12708677B2, “Contrast agents, methods for preparing contrast agents, and methods of imaging” (Georgia State University Research Foundation, Inc., priority 2008, dated 2026).
